Measured values: patent US10433539B2, “Composition and solution with controlled calcium ion level, and related method and use for reperfusion” (TEVOSOL, INC., priority 2014, dated 2019)

System: harvested pig hearts
Settings: 500 μmol/L lidocaine in cardioplegic compositions, combined data of Part 1 and Part 2 (1, 3, 5 hours)
Excerpt: Part 1: The next study assessed if there were potential incremental benefits to increasing the duration of reperfusion of harvested donor hearts with a mildly acidic hypocalcemic oxygenated cardioplegic composition.
The sample solutions used for these tests were the same as Sample solutions IIIC described above.

Compound: CCN(CC)CC(=O)Nc1c(C)cccc1C [lidocaine]
- effect of lidocaine concentration on donor heart myocardial function: debilitating effects
